According to ChEMBL document CHEMBL4229381, “New cytokinin derivatives possess UVA and UVB photoprotective effect on human skin cells and prevent oxidative stress” (Eur J Med Chem, 2018):
The source made the active and inactive calls. No cut-off for these calls is given here.

Key:
Format in all cases: functional
[1] = system: Triticum aestivum; assay: Anti-senescent activity in leaf of Triticum aestivum cv. Hereward seedlings by measuring chlorophyll retention at 10^-4 mol/L after 4 days relative to control
[2] = system: Nicotiana tabacum; assay: Growth promoting activity in tobacco callus assessed as callus weight at 10^-5 mol/L after 4 weeks relative to control
[3] = system: Amaranthus caudatus; assay: Growth promoting activity in Amaranthus caudatus var. atropurpurea seeds by measuring betacyanin at 10^-4 mol/L after 48 hrs relative to control

Row | Structure (SMILES) | Activity [1] | Activity [2] [%] | Activity [3] [%]
1 | Cc1ccsc1CNc1ncnc2c1ncn2C1CCCO1 (configuration not stated) | 110% | 99 | –
2 | c1ccc(CNc2ncnc3[nH]cnc23)cc1 [6-BENZYLAMINOPURINE] | – | 20 | –
3 | Clc1nc(NCc2cccs2)c2ncn(C3CCCO3)c2n1 (configuration not stated) | inactive | 108 | 101
4 | c1csc(CCNc2ncnc3[nH]cnc23)c1 | inactive | 77 | 80
5 | c1nc(NCC2CCCC2)c2nc[nH]c2n1 | 71% | 100 | 97
